Test results reported in patent US9782429B2, “Formulation having mobilizing activity” (GENTIUM SPA, priority 2000, dated 2017).

Test system: white blood cells (WBC)
Experiment: Effect of G-CSF and/or defibrotide on the amount of white blood cells in murine blood
Format: in vivo, BALB/c mice
Conditions: mice, IP injection, 5 days treatment; FIG. 1
Experimental: This experiment was carried out to evaluate the effect of the administration of G-CSF and/or defibrotide (DEF) on the amount of white blood cells (WBC) present in murine blood. BALB/c mice from 6 to 8 weeks old and having a body weight of from 20 to 25 g were subjected to intraperitoneal (IP) injections of G-CSF (5 μg/mouse/day), DEF (1 mg/mouse/day), or a combination of G-CSF (5 μg/mouse/day) and increasing doses of DEF (1, 10, 15 mg/mouse/day). A saline solution, buffered to 0.1%, of […] (PBS/MSA) was administered by IP injection to the control mice which had not received G-CSF and/or DEF. The mice were treated for 5 days and sacrificed after 3 or 5 days of treatment, or 3 days after therapy had ceased. The following symbols were used to represent each group of mice: G-CSF (▪) (n=24), DEF 1 (◯) (n=3), G-CSF+DEF 1 (♦) (n=13), G-CSF+DEF 10 (▴) (n=6), G-CSF+DEF 15 (●) (n=23). The mean white blood cell count in PBS/MSA in the control mice was 2.87±0.2×10^6/ml of blood; the data ate expressed as mean± standard error of the mean (SEM).

## defibrotide
  amount of white blood cells in circulation in murine blood: does not have a positive influence
